The Kb is the affinity of an antagonist, worked out from how it opposes an agonist. In general, Ki refers to a dissociation constant, usually derived from enzyme kinetics or from competition with a known ligand.

Consider five compounds from US5824696A, “Medicaments” (SmithKline Beecham Corporation, priority 1993, dated 1998).

Numbering of substitutions follows the chain as printed. Like-named read-outs stand apart in the source and are kept apart here.

Experiment [1] addresses T1, angiotensin receptors in human synovium (Homo sapiens, UniProt P30556).
T1 construct: Human knee synovium was collected at surgery from patients with osteoarthritis or rheumatoid arthritis; from tissue; host or cells: human knee synovium cryostat sections (osteoarthritis, rheumatoid arthritis, chondromalacia patellae)
T1 sequence (P30556 1-359): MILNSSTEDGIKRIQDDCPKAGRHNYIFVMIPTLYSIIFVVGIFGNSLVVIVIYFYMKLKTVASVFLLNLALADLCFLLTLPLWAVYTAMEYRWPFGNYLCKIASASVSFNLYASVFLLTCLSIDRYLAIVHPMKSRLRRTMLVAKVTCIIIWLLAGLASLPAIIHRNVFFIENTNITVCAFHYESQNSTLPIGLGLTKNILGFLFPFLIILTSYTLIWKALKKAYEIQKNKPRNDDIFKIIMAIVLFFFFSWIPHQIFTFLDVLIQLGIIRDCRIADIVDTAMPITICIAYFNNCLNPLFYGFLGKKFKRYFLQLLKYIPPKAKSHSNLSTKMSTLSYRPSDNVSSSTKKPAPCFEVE
Description: Inhibition of [125I](Sar1, Ile8)AII binding to human synovium, quantitative receptor autoradiography. Also noted: Binding of [125I](Sar1, Ile8) angiotensin II in the presence of antagonist: unit not given here. The note with it: for Binding of [125I](Sar1, Ile8) angiotensin II in the presence of DTT: osteoarthritis; for nHill values / Ki: osteoarthritic synovium; for Ki: 0.25 nM [125I](Sar1, Ile8)AII; for Binding of [125I](Sar1, Ile8) angiotensin II in the presence of antagonist: 10 μM antagonist. Here is the method: Human knee synovium was collected at surgery from patients with osteoarthritis or rheumatoid arthritis undergoing total knee replacement and patients with chondromalacia patellae undergoing carbon fibre resurfacing of articular cartilage. Tissue samples were immediately embedded in Tissue-Tek (Miles Inc., Elkhart, Ind., USA) and frozen to cork mounts in melting isopentane without prior fixation. Specimens were stored at -40° C. until use. […] thick sections were cut in a cryostat and thaw mounted onto Vectabond™ (Vector Laboratories, Peterborough, U.K.) treated slides, air dried and used immediately, or stored at -20° C. with silica gel for up to 5 days until use.
[…] Excess buffer was removed and sections were incubated for 90 minutes with ligand in buffer B (buffer A plus 1% bovine serum albumin). […] Except where stated, incubations were performed at 22° C.
Films were developed in Kodak D9 for 3 minutes at 15° C. […] Synovial structures were identified, where necessary, by comparison of films with tissue sections counterstained with haematoxylin and eosin. Tissue structures (blood vessels, lining cells and regions of subintimal stroma displaying specific binding) were each delineated interactively. Binding was quantified on the 20 blood vessels in each section with the most dense specific binding.
Specific binding was defined as total minus non-specific binding. Characterisation of specific binding was performed on samples of synovium from patients with osteoarthritis.
Kinetic and equilibrium constants were derived from specific binding values by iterative non-linear regression assuming single site models using GraphPAD Inplot4 (San Diego). […] Values for binding inhibition constants (Ki) and HIll coefficients (nHill) were derived by fitting to sigmoid curves.

In experiment [2] the target is T2, contractile response to angiotensin II in the isolated rabbit aorta (Oryctolagus cuniculus, UniProt P34976).
T2 construct: Ring segments are cut from the rabbit thoracic aorta; from tissue; host or cells: rabbit thoracic aorta ring segments
T2 sequence (P34976 1-359): T1 sequence (P30556 1-359) with I2M, V49A, I254V, I270V, R272H, R311K, T349S, A353V
In words: Antagonism of angiotensin II induced vasoconstriction in isolated rabbit aorta. As to conditions: rabbit thoracic aorta rings, 30-minute incubation, dose ratio method; read-out: Antagonist dissociation constant (KB). Here is the method:
Angiotensin II antagonist activity is assessed by in vitro methods In vitro antagonist activity is determined by the ability of the compounds to compete with ^125 I-angiotensin II for binding to vascular angiotensin II receptors and by their ability to antagonize the contractile response to angiotensin II in the isolated rabbit aorta.
The ability of the compounds to antagonize angiotensin II induced vasoconstriction is examined in the rabbit aorta. Ring segments are cut from the rabbit thoracic aorta and suspended in organ baths containing physiological salt solution. The ring segments are mounted over metal supports and attached to force displacement transducers which are connected to a recorder. Cumulative concentration response curves to angiotensin II are performed in the absence of antagonist or following a 30-minute incubation with antagonist. Antagonist dissociation constants (KB) are calculated by the dose ratio method using the mean effective concentrations. The KB for (E)-3-[2-n-butyl-1-{4-carboxynaphth-1-yl)methyl}-1H-imidazol-5-yl]-2-(2-thienyl)methyl-2-propenoic acid is about 0.15 nM.

Experiment [3] relates to angiotensin receptors in human synovium. In words: Guanine nucleotide sensitivity of [125I]AII binding to human synovium. The note with it: 1 μM GTPγS.

Consider `O[C@H](CS)[C@H](O)CS` (racemic) [DTT, dithiothreitol], for which the “Inhibition of specific [125I](Sar1, Ile8)AII binding to each structure” value in experiment [1] (10 mM DTT) is given as “completely inhibited”. Besides, the “Binding of [125I](Sar1, Ile8) angiotensin II in the presence of DTT” value was 3.2 (2.9 to 3.5) amol mm^-2 in experiment [1] (blood vessels, 10 mM DTT, total 10.2, nonspecific 3.2); 2.0 (1.8 to 2.3) amol mm^-2 in experiment [1] (lining cells, 10 mM DTT, total 5.1, nonspecific 2.1); 1.6 (1.5 to 1.7) amol mm^-2 in experiment [1] (stroma, 10 mM DTT, total 2.6, nonspecific 1.7).

Turning to `CCCCc1ncc(/C=C(\Cc2cccs2)C(=O)O)n1Cc1ccc(C(=O)O)c2ccccc12` [(E)-3-[2-n-butyl-1-{4-carboxynaphth-1-yl)methyl}-1H-imidazol-5-yl]-2-(2-thienyl)methyl-2-propenoic acid], the Kb in experiment [2] is about 0.15 nM.

Regarding `CCCCc1ncc(/C=C(\Cc2cccs2)C(=O)O)n1Cc1ccc(C(=O)O)cc1` [(E)-3-[2-n-butyl-1-{4-carboxyphenyl)methyl}-1H-imidazol-5-yl]-2-(2-thienyl)methyl-2-propenoic acid], the nHill values in experiment [1] (blood vessels) is on record as 1.2; in experiment [1] (lining cells) it was 0.8; in experiment [1] (stroma), 0.8. Also, the Ki in experiment [1] (blood vessels, read-out: Ki values) was 49 nM; in experiment [1] (lining cells, read-out: Ki values), 60.3 nM; in experiment [1] (stroma, read-out: Ki values), 81.3 nM. The “Inhibition of binding of [125I](Sar1, Ile8)AII to microvessels, lining cells and stroma” value in experiment [1] (inflamed human synovium) was “potently and completely inhibited”.

`Nc1nc2c(ncn2[C@@H]2O[C@H](COP(=O)(O)OP(=O)(O)OP(O)(O)=S)[C@@H](O)[C@H]2O)c(=O)[nH]1` [GTPγS, guanosine 5'-O-(3-thiotriphosphate)]: the “Inhibition of [125I](Sar1, Ile8)AII binding” value in experiment [1] (1 μM GTPγS) is given as “did not inhibit”. Moreover, the “Inhibition of binding of agonist [125I]AII to each structure” value in experiment [3] was “levels not significantly different from nonspecific binding”.

As to `Cc1cc(Cn2cnc3c2C[C@@H](C(=O)O)N(C(=O)C(c2ccccc2)c2ccccc2)C3)ccc1N(C)C` [PD123319], the “Inhibition of specific [125I](Sar1, Ile8)AII binding to each structure” value in experiment [1] (10 μM, synovium from patients with osteoarthritis and rheumatoid arthritis) is “not significantly inhibited”. The inhibition constant (Ki) was over 10000 nM in experiment [1] (Ki values, blood vessels); over 10000 nM in experiment [1] (Ki values, lining cells); over 10000 nM in experiment [1] (Ki values, stroma). The “Binding of [125I](Sar1, Ile8) angiotensin II in the presence of antagonist” value stood at 7.1 in experiment [1] (blood vessels, OA, total 7.9, nonspecific 2.4); 12 in experiment [1] (blood vessels, RA, total 14, nonspecific 2.6); 3.8 in experiment [1] (lining cells, OA, total 3.6, nonspecific 1.6); 5.5 in experiment [1] (lining cells, RA, total 5.7, nonspecific 1.7); 2.2 in experiment [1] (stroma, OA, total 2.4, nonspecific 1.5); 2.9 in experiment [1] (stroma, RA, total 3.0, nonspecific 1.6).
